Measured values taken from patent publication US7101888B2, “Oral liquid tolterodine composition” (Pharmacia & UpJohn Company, priority 2002, dated 2006).

Columns and labels:
[1] = system: muscarinic receptors of the salivary gland; details: compared with oxybutynin; cited from earlier work
[2] = Chemical stability of tolterodine in aqueous media; type: physicochemical

Q: For `Cc1ccc(O)c([C@H](CCN(C(C)C)C(C)C)c2ccccc2)c1` [tolterodine, (R)-N,N-diisopropyl-3-(2-hydroxy-5-methylphenyl)-3-phenylpropanamine], which “affinity for the muscarinic receptors of the salivary gland relative to oxybutynin” value [1] is on record?
A: The value was “about eight times lower”.

Q: What about the “stability in aqueous solutions of tolterodine salts” value ([2]; alkaline pH) of the same molecule?
A: The value was “unstable”.

Q: And the “pH of optimum stability” value ([2]; aqueous solutions of tolterodine salts)?
A: The value was “about 4”.

Q: And the “chemical stability in aqueous media” value ([2]; neutral to alkaline pH levels)?
A: Its value is “chemical instability”.
